In PMC6983054, “Toxicity and Antitumor Activity of a Thiophene–Acridine Hybrid” (Molecules, 2019):

Columns and labels:
[1] = tested on: HCT-116 cells (human colon carcinoma cell line); test: MTT cytotoxicity assay, HCT-116; format: cell-based; conditions: HCT-116, MTT, 72 h, read-out: IC50
Text: Colorectal carcinoma cells (HCT-116), chronic myelogenous leukemia (K562), and acute promyelocytic leukemia (HL-60) were generously provided by Dr. Manoel de Moraes (Federal University of Ceará, Fortaleza, Brazil) and cultured in Roswell Park Memorial Institute 1640 (RPMI 1640; Sigma Aldrich, St. Louis, MO, USA) medium supplemented with 10% fetal bovine serum (GIBCO, Grand Island, NY, USA) and 1% penicillin–streptomycin (Sigma Aldrich, St. Louis, MO, USA). Human keratinocyte cells (HaCaT; provided by Dr. Jaciana Aguiar from Federal University of Pernambuco, Recife, Pernambuco, Brazil), cervical cancer cells (HeLa; purchased from the cell bank of Rio de Janeiro, Rio de Janeiro, Brazil), and breast cancer cells (MCF-7; provided by Dr. João Ernesto de Carvalho from University of Campinas, Campinas, São Paulo, Brazil) were grown and maintained in Dulbecco’s Modified Eagle’s Medium (DMEM; Sigma Aldrich, St. Louis, MO, USA) supplemented with 10% fetal bovine serum (GIBCO, Grand Island, NY, USA) and 1% penicillin–streptomycin (Sigma Aldrich, St. Louis, MO, USA). All cell types were maintained in 5% CO2 at 37 °C with humidity.
MTT (3-(4,5-dimethylthiazol-2-yl)-2,5-diphenyltetrazolium bromide) reduction assay was used to evaluate the cytotoxicity of ACS03 and its precursors (2-amino-5,6,7,8-tetrahydro-4H-cyclohepta[b]thiophene-3-carbonitrile and 6,9-dichloro-2-methoxyacridine) against tumor and non-tumor cell lines and PBMC. For the MTT assay, cell lines (3 × 10^5 cells/mL) and PBMC (1 × 10^6 cells/mL) were seeded on 96-well plates and cultured for 24 h. ACS03 (3.125–200 µM) was added to the cell cultures and incubated for 72 h. After incubation, 110 µL of the supernatant was removed and 10 μL of the MTT reagent (Sigma Aldrich, St. Louis, MO, USA) was added to each well, and the plates were then incubated at 37 °C. Following 3 h incubation, 100 μL of sodium dodecyl sulfate (SDS) was added to dissolve the formazan crystals produced and left overnight to incubate. The amount of formazan is proportional to the number of viable cells present. The optical density was measured using a microplate spectrophotometer reader (Microplate reader BioTek Instruments, Sinergy HT, Winooski, VT, USA) at λ = 570 nm and used to calculate the IC50 (half maximal inhibitory concentration).

nitrite (nitric oxide) = test: Nitrite levels in ascitic fluid, Ehrlich ascites carcinoma model (Griess); format: in vivo, mice (Mus musculus); conditions: peritoneal fluid, 25 mg/kg; control 36.09 ± 0.72 µM
Procedure: The nitrite concentration in the ascitic fluid was measured using Griess reagent. For this, the peritoneal fluid of control and treated animals (12.5 mg/kg ACS03 and 25 mg/kg 5-FU) was used. The optical density was measured using a microplate spectrophotometer reader (Microplate reader BioTek Instruments, Sinergy HT, Winooski, VT, USA) at λ = 560 nm. Concentrations of nitrite were calculated from a standard curve previously established with known molar concentrations of sodium nitrite. The tests were done in quadruplicate and the values expressed in µM [51].

| SMILES | IC50 [1] | nitrite concentration (nitrite (nitric oxide)) |
| --- | --- | --- |
| COc1cccc2c1C(=O)c1c(O)c3c(c(O)c1C2=O)C[C@@](O)(C(=O)CO)C[C@@H]3O[C@H]1C[C@H](N)[C@H](O)[C@H](C)O1 [Doxorubicin] | 2590 nM | – |
| O=c1[nH]cc(F)c(=O)[nH]1 [5-FU, 5-fluorouracil, reference compound] | – | 16.3 ± 2.91 µM |
